Reference: PMC4076524 (The Journal of General Physiology, 2014)
Residue numbers refer to the chain shown, from its start.

Columns and labels:
[1] = target: MlotiK1 CNB domain wild type (Mesorhizobium japonicum, UniProt Q98GN8); assay: 8-NBD cAMP fluorescence binding/competition assay; design: species or system Mesorhizobium loti
[2] = target: T1, MlotiK1 CNB domain T284S/V288S/A352D mutant (Mesorhizobium japonicum, UniProt Q98GN8, A352D/T284S/V288S); assay: 8-NBD cAMP fluorescence binding/competition assay; design: species or system Mesorhizobium loti; details: for coupling energy for the combination of T284S with V288S/A352D: mutant cycle analysis of ligand binding
T1 sequence (Q98GN8 211-355 T284S/V288S/A352D limits assumed): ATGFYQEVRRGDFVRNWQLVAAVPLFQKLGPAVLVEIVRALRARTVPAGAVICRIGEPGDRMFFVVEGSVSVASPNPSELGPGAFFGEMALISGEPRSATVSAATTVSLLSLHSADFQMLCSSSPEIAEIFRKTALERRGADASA

[3] = target: T2, MlotiK1 CNB domain V288S/A352D mutant (Mesorhizobium japonicum, UniProt Q98GN8, A352D/V288S); assay: 8-NBD cAMP fluorescence competition binding assay; design: species or system Mesorhizobium loti; details: for coupling energy between V288S and A352D: double mutant cycle analysis of ligand binding
T2 sequence (Q98GN8 211-355 V288S/A352D limits assumed): T1 sequence (Q98GN8 211-355 T284S/V288S/A352D limits assumed) with S74T

[4] = target: T284S/V288S/A352D MlotiK1 potassium channel (Mesorhizobium japonicum, UniProt Q98GN8, A352D/T284S/V288S); assay: 86Rb+ uptake assay in proteoliposomes; type: biochemical, Mesorhizobium loti; details: Hill fit
Chain of T284S/V288S/A352D MlotiK1 potassium channel (Q98GN8 whole entry T284S/V288S/A352D): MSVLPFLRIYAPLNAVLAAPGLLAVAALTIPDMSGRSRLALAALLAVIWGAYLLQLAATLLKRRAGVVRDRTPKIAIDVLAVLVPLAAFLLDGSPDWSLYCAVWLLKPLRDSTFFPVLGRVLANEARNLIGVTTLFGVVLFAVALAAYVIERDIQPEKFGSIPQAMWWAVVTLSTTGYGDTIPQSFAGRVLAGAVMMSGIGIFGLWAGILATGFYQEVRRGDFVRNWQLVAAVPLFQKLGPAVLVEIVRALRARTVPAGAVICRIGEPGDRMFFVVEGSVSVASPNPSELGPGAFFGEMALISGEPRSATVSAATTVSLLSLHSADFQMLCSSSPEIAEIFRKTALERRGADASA

[5] = system: olfactory CNG channel, threonine at C-terminal end of PBC mutated to alanine; details: threonine to alanine mutant; ref Altenhofen et al., 1991; cited from earlier work
[6] = target: MlotiK1 CNB domain V282L mutant (Mesorhizobium japonicum, UniProt Q98GN8, V282L); assay: 8-NBD cAMP fluorescence competition binding assay; design: species or system Mesorhizobium loti
Chain of MlotiK1 CNB domain V282L mutant (Q98GN8 211-355 V282L limits assumed): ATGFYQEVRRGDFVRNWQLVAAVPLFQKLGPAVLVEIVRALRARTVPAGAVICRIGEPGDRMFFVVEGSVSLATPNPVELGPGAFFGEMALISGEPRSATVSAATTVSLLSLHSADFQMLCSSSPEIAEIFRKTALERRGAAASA

[7] = target: MlotiK1 CNB domain T284N mutant (Mesorhizobium japonicum, UniProt Q98GN8, T284N); assay: 8-NBD cAMP fluorescence competition binding assay; design: species or system Mesorhizobium loti
Chain of MlotiK1 CNB domain T284N mutant (Q98GN8 211-355 T284N limits assumed): as the sequence (Q98GN8 211-355 V282L limits assumed) above, with L72V, T74N counted along it

[8] = target: MlotiK1 CNB domain T284Q mutant (Mesorhizobium japonicum, UniProt Q98GN8, T284Q); assay: 8-NBD cAMP fluorescence competition binding assay; design: species or system Mesorhizobium loti
Chain of MlotiK1 CNB domain T284Q mutant (Q98GN8 211-355 T284Q limits assumed): as the sequence (Q98GN8 211-355 V282L limits assumed) above, with L72V, T74Q counted along it

[9] = target: MlotiK1 CNB domain T284S mutant (Mesorhizobium japonicum, UniProt Q98GN8, T284S); assay: 8-NBD cAMP fluorescence competition binding assay; design: species or system Mesorhizobium loti
Chain of MlotiK1 CNB domain T284S mutant (Q98GN8 211-355 T284S limits assumed): as the sequence (Q98GN8 211-355 V282L limits assumed) above, with L72V, T74S counted along it

[10] = target: MlotiK1 CNB domain V288A mutant (Mesorhizobium japonicum, UniProt Q98GN8, V288A); assay: 8-NBD cAMP fluorescence competition binding assay; design: species or system Mesorhizobium loti
Chain of MlotiK1 CNB domain V288A mutant (Q98GN8 211-355 V288A limits assumed): as the sequence (Q98GN8 211-355 V282L limits assumed) above, with L72V, V78A counted along it

[11] = target: MlotiK1 CNB domain V288L mutant (Mesorhizobium japonicum, UniProt Q98GN8, V288L); assay: 8-NBD cAMP fluorescence competition binding assay; design: species or system Mesorhizobium loti
Chain of MlotiK1 CNB domain V288L mutant (Q98GN8 211-355 V288L limits assumed): as the sequence (Q98GN8 211-355 V282L limits assumed) above, with L72V, V78L counted along it

[12] = target: MlotiK1 CNB domain V288I mutant (Mesorhizobium japonicum, UniProt Q98GN8, V288I); assay: 8-NBD cAMP fluorescence competition binding assay; design: species or system Mesorhizobium loti
Chain of MlotiK1 CNB domain V288I mutant (Q98GN8 211-355 V288I limits assumed): as the sequence (Q98GN8 211-355 V282L limits assumed) above, with L72V, V78I counted along it

[13] = target: MlotiK1 CNB domain V288S mutant (Mesorhizobium japonicum, UniProt Q98GN8, V288S); assay: 8-NBD cAMP fluorescence competition binding assay; design: species or system Mesorhizobium loti
Chain of MlotiK1 CNB domain V288S mutant (Q98GN8 211-355 V288S limits assumed): as the sequence (Q98GN8 211-355 V282L limits assumed) above, with L72V, V78S counted along it

[14] = target: MlotiK1 CNB domain M299C mutant (Mesorhizobium japonicum, UniProt Q98GN8, M299C); assay: 8-NBD cAMP fluorescence competition binding assay; design: species or system Mesorhizobium loti
Chain of MlotiK1 CNB domain M299C mutant (Q98GN8 211-355 M299C limits assumed): as the sequence (Q98GN8 211-355 V282L limits assumed) above, with L72V, M89C counted along it

[15] = target: MlotiK1 CNB domain M299Q mutant (Mesorhizobium japonicum, UniProt Q98GN8, M299Q); assay: 8-NBD cAMP fluorescence competition binding assay; design: species or system Mesorhizobium loti
Chain of MlotiK1 CNB domain M299Q mutant (Q98GN8 211-355 M299Q limits assumed): as the sequence (Q98GN8 211-355 V282L limits assumed) above, with L72V, M89Q counted along it

[16] = target: MlotiK1 CNB domain A352S mutant (Mesorhizobium japonicum, UniProt Q98GN8, A352S); assay: 8-NBD cAMP fluorescence competition binding assay; design: species or system Mesorhizobium loti; details: competition with 50 nM 8-NBD cAMP, constant ligand, variable protein, room temperature, pH 7.5
Chain of MlotiK1 CNB domain A352S mutant (Q98GN8 211-355 A352S limits assumed): as the sequence (Q98GN8 211-355 V282L limits assumed) above, with L72V, A142S counted along it

[17] = target: MlotiK1 CNB domain A352D mutant (Mesorhizobium japonicum, UniProt Q98GN8, A352D); assay: 8-NBD cAMP fluorescence competition binding assay; design: species or system Mesorhizobium loti
Chain of MlotiK1 CNB domain A352D mutant (Q98GN8 211-355 A352D limits assumed): as the sequence (Q98GN8 211-355 V282L limits assumed) above, with L72V, A142D counted along it

[18] = target: MlotiK1 CNB domain R348A mutant (Mesorhizobium japonicum, UniProt Q98GN8, R348A); assay: 8-NBD cAMP fluorescence competition binding assay; design: species or system Mesorhizobium loti; details: modified titration
Chain of MlotiK1 CNB domain R348A mutant (Q98GN8 211-355 R348A limits assumed): as the sequence (Q98GN8 211-355 V282L limits assumed) above, with L72V, R138A counted along it

[19] = target: MlotiK1 CNB domain R348N mutant (Mesorhizobium japonicum, UniProt Q98GN8, R348N); assay: 8-NBD cAMP fluorescence competition binding assay; design: species or system Mesorhizobium loti; details: affinities (Kd), range stated over R348N, R348Q and R348K for cAMP and cGMP
Chain of MlotiK1 CNB domain R348N mutant (Q98GN8 211-355 R348N limits assumed): as the sequence (Q98GN8 211-355 V282L limits assumed) above, with L72V, R138N counted along it

[20] = target: MlotiK1 CNB domain R348Q mutant (Mesorhizobium japonicum, UniProt Q98GN8, R348Q); assay: 8-NBD cAMP fluorescence competition binding assay; design: species or system Mesorhizobium loti; details: affinities (Kd), range stated over R348N, R348Q and R348K for cAMP and cGMP
Chain of MlotiK1 CNB domain R348Q mutant (Q98GN8 211-355 R348Q limits assumed): as the sequence (Q98GN8 211-355 V282L limits assumed) above, with L72V, R138Q counted along it

[21] = target: MlotiK1 CNB domain R348K mutant (Mesorhizobium japonicum, UniProt Q98GN8, R348K); assay: 8-NBD cAMP fluorescence competition binding assay; design: species or system Mesorhizobium loti; details: affinities (Kd), range stated over R348N, R348Q and R348K for cAMP and cGMP
Chain of MlotiK1 CNB domain R348K mutant (Q98GN8 211-355 R348K limits assumed): as the sequence (Q98GN8 211-355 V282L limits assumed) above, with L72V, R138K counted along it

[22] = target: MlotiK1 CNB domain R348Y mutant (Mesorhizobium japonicum, UniProt Q98GN8, R348Y); assay: 8-NBD cAMP fluorescence competition binding assay; design: species or system Mesorhizobium loti; details: modified titration
Chain of MlotiK1 CNB domain R348Y mutant (Q98GN8 211-355 R348Y limits assumed): as the sequence (Q98GN8 211-355 V282L limits assumed) above, with L72V, R138Y counted along it

[23] = target: MlotiK1 CNB domain V288S/A352S mutant (Mesorhizobium japonicum, UniProt Q98GN8, A352S/V288S); assay: 8-NBD cAMP fluorescence competition binding assay; design: species or system Mesorhizobium loti
Chain of MlotiK1 CNB domain V288S/A352S mutant (Q98GN8 211-355 V288S/A352S limits assumed): as the sequence (Q98GN8 211-355 V282L limits assumed) above, with L72V, V78S, A142S counted along it

[24] = system: bovine rod photoreceptor CNG channel; details: ref Altenhofen et al., 1991; cited from earlier work
[25] = system: bovine olfactory CNG channel; details: ref Altenhofen et al., 1991; cited from earlier work
[26] = system: CNB β domain from the cGMP-dependent protein kinase I; details: ref Huang et al., 2014; cited from earlier work

Chain of MlotiK1 CNB domain wild type (Q98GN8 211-355 limits assumed): as the sequence (Q98GN8 211-355 V282L limits assumed) above, with L72V counted along it

Nc1ncnc2c1nc(SCCNc1ccc([N+](=O)[O-])c3nonc13)n2[C@@H]1O[C@@H]2COP(=O)(O)O[C@H]2[C@H]1O [8-NBD cAMP]
Kd [1]: 0.171 ± 0.02 µM
Kd [2]: 2 µM

Nc1ncnc2c1ncn2[C@@H]1O[C@@H]2COP(=O)(O)O[C@H]2[C@H]1O [cAMP]
coupling energy between V288S and A352D [3]: -0.78 ± 0.18 kcal/mol
coupling energy for the combination of T284S with V288S/A352D [2]: 0.14 ± 0.19 kcal/mol
Hill coefficient [4]: 0.84
preference for cAMP [5]: 3.3 fold

Nc1nc2c(ncn2[C@@H]2O[C@@H]3COP(=O)(O)O[C@H]3[C@H]2O)c(=O)[nH]1 [cGMP]
Kd [1]: 1.73 µM
Kd [6]: 8.95 µM
Kd [7]: 6.56 µM
Kd [8]: 6.95 µM
Kd [9]: 2.98 µM
Kd [10]: 2.54 µM
Kd [11]: 0.996 ± 0.163 µM
Kd [12]: 0.797 ± 0.118 µM
Kd [13]: 2.1 µM
change in ligand-binding energy by V288S alone ([13]; mutant cycle, relative to wild type): 0.12 ± 0.10 kcal/mol
Kd [14]: 2.94 µM
Kd [15]: 11.6 µM
Kd [16]: 0.727 ± 0.16 µM
Kd [17]: 0.85 ± 0.121 µM
Kd [18]: 39 ± 2.5 µM
Kd [19]: 16 to 46 µM
Kd [20]: 16 to 46 µM
Kd [21]: 16 to 46 µM
Kd [22]: 33 ± 4.8 µM
Kd [23]: 0.749 ± 0.075 µM
Kd [3]: 0.351 ± 0.095 µM
coupling energy between V288S and A352D [3]: -0.64 ± 0.20 kcal/mol
change in ligand-binding energy by V288S when combined with A352D ([3]; mutant cycle, relative to A352D): -0.52 ± 0.18 kcal/mol
Kd [2]: 0.336 ± 0.126 µM
coupling energy for the combination of T284S with V288S/A352D [2]: -0.34 ± 0.29 kcal/mol
Hill coefficient [4]: 1.3
sensitivity to cGMP relative to cAMP (ratio of the K1/2 for channel activation) [24]: ~40 times
sensitivity to cGMP relative to cAMP (ratio of the K1/2 for channel activation) [25]: ~40 times
selectivity for cGMP over cAMP [26]: ~250 times
